Assay [1] concerns the target T1, rhASGPR (Homo sapiens, UniProt P07306).
T1 construct: The extracellular domains of receptor proteins were acquired from R&D Systems (Wiesbaden, Germany); purchased R&D Systems (Wiesbaden, Germany)
T1 sequence (P07306 62-291 limits assumed): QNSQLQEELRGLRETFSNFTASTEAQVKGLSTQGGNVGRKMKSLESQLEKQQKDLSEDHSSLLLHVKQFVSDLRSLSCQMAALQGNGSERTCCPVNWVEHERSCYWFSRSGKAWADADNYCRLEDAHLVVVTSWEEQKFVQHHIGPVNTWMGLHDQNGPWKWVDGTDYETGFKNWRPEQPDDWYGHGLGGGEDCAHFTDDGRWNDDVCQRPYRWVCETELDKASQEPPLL
The assay is described as follows: Solid-phase binding assay of multimeric VWF with rhASGPR. Conditions: VWF 100 to 3 μg/mL, 1 hour at +37 °C; FIG. 12. The text has this: In addition to SPR-based interaction analysis with monomeric VWF, the interaction of multimeric VWF (purified from human plasma) with rhASGPR was investigated by using solid-phase binding assay. In addition, asialo-VWF (plasma derived VWF after treatment with α(2-3,6,8)-neuraminidase) was used as control.
Lyophilized rhASGPR (R&D Systems, Wiesbaden, Germany) was reconstituted and diluted in 0.05 M carbonate-bicarbonate buffer at pH 9.6, adsorbed onto high-adsorption 96-microwell plates at RT overnight, and subsequently washed with washing buffer (50 mM Tris, 150 mM NaCl, 5 mM CaCl2 and 0.1% (w/v) Tween-20 at pH 7.4). Afterwards, the wells were incubated for 1 hour with blocking solution (50 mM Tris, 150 mM NaCl, 5 mM CaCl2 and 2.5% (w/v) BSA at pH 7.4) in order to block non-specific binding, and then washed with washing buffer again. […] After washing the wells, associated VWF was subsequently detected by a commercial polyclonal rabbit anti-human VWF antibody conjugated with HRP (DakoCytomation, Glostrup, Denmark) that had been previously diluted 1:16,000 in dilution buffer. […] The reaction was stopped with stopping solution POD (Siemens Healthcare Diagnostics, Marburg, Germany) and the substrate reaction was photometrically monitored by measuring the difference in wave lengths at 450 nm and 620 nm.

Assay [2] has as its system clearance receptor candidates. Description: Interaction of pd VWF multimers with clearance receptor candidates and its inhibition (Example 10). It is filed as binding. Conditions: example without data; for inhibition of binding of pd VWF multimers to clearance receptor candidates: in the presence of ASF or monosaccharides. The text has this:
According to Example 9, pd VWF multimers interact with clearance receptor candidates mentioned earlier. In addition, binding is inhibited in the presence of ASF or monosaccharides such as galactose, fucose and N-acetylgalactosamine.

Assay [3] deals with T1, rhASGPR. The assay is described as follows: SPR inhibition of ASF binding to rhASGPR by monosaccharides. Conditions: in the presence of the monosaccharide, FIG. 11. How it is done: (§1) SPR technology (Biacore T200, GE Healthcare Biosciences, Uppsala, Sweden) was applied to evaluate mechanisms of realtime biomolecular interactions between VWF, receptor-blocking agents and clearance receptor candidates. The interaction experiments were performed at a flow cell temperature of +25° C. by applying running buffer containing 10 mM HEPES, 150 mM NaCl, 5 mM CaCl2 and 0.05% Tween-20 at pH 7.4, which was also used as sample dilution buffer. Reagents and buffer stock solutions were purchased from GE Healthcare Biosciences (Uppsala, Sweden). The extracellular domains of receptor proteins were acquired from R&D Systems (Wiesbaden, Germany). The ligands were captured on Series S Sensor […] pretreated according to the manufacturer's instructions. The receptor proteins were covalently immobilized through free amine groups to the carboxymethylated dextran matrix by applying the amine coupling kit according to the manufacturer protocol. A blank flow cell without immobilized protein was included as a reference surface on the chip for bulk shift and nonspecific binding changes.
(§2) Increasing concentrations of both ASF and fetuin ranging from 10,240 to 10 nM were prepared as a 2 fold serial dilution series in running buffer and sequentially injected across the chip surface at 25 μL/min in order to characterize protein-ligand interaction. […]
Kinetic data were analyzed using Biacore T200 Evaluation Software Version 1.0 (GE Healthcare Biosciences, Uppsala, Sweden). An interaction of the analyte with the ligand was detected by an increase in accumulating mass and specific binding was identified by subtracting the binding response recorded from the control surface, followed by subtracting an average of the buffer blank injections. A report point was positioned 20 seconds after the end of sample injection and was evaluated as representative for a stable protein-ligand interaction, which was of interest. […] Furthermore, the response was calculated relative to the baseline in each case. […]

The next assay relates to clearance receptors. The assay is described as follows: Inhibition of pd VWF monomer interaction with clearance receptors by monosaccharides (Example 8). It is filed as binding. Conditions: in the presence of monosaccharides; example without data. The source says:
According to example 7, the interaction of pd VWF monomers with clearance receptors mentioned earlier is inhibited in the in the presence of monosaccharides such as galactose, fucose and N-acetylgalactosamine.

For assay [4], the target named is T1, rhASGPR. The assay is described as follows: SPR binding to immobilized clearance receptor rhASGPR. The settings on record: 25 °C, 5 mM CaCl2, pH 7.4, FIGS. 9 and 10. As for the experimental part:
SPR technology (Biacore T200, GE Healthcare Biosciences, Uppsala, Sweden) was applied to evaluate mechanisms of realtime biomolecular interactions between VWF, receptor-blocking agents and clearance receptor candidates. The interaction experiments were performed at a flow cell temperature of +25° C. by applying running buffer containing 10 mM HEPES, 150 mM NaCl, 5 mM CaCl2 and 0.05% Tween-20 at pH 7.4, which was also used as sample dilution buffer. Reagents and buffer stock solutions were purchased from GE Healthcare Biosciences (Uppsala, Sweden). The extracellular domains of receptor proteins were acquired from R&D Systems (Wiesbaden, Germany). […]
(§3) Kinetic data were analyzed using Biacore T200 Evaluation Software Version 1.0 (GE Healthcare Biosciences, Uppsala, Sweden). An interaction of the analyte with the ligand was detected by an increase in accumulating mass and specific binding was identified by subtracting the binding response recorded from the control surface, followed by subtracting an average of the buffer blank injections. A report point was positioned 20 seconds after the end of sample injection and was evaluated as representative for a stable protein-ligand interaction, which was of interest. […] Furthermore, the response was calculated relative to the baseline in each case.

The next assay concerns the target T2, rhCLEC4M (Homo sapiens, UniProt Q9H2X3).
T2 construct: The extracellular domains of receptor proteins were acquired from R&D Systems (Wiesbaden, Germany); purchased R&D Systems (Wiesbaden, Germany)
T2 sequence (Q9H2X3 71-399 limits assumed): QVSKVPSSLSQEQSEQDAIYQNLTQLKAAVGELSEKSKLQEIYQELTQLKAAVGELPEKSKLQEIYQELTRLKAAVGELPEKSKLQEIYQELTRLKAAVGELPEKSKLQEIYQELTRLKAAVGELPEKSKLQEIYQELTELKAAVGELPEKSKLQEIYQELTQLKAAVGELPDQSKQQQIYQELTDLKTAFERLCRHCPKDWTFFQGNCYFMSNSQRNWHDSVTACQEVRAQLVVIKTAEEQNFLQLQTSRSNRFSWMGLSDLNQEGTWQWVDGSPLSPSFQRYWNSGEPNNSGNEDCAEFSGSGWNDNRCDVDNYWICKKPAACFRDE
Description: SPR binding to immobilized clearance receptor rhCLEC4M. The settings on record: 25 °C, 5 mM CaCl2, pH 7.4, FIGS. 9 and 10. As for the experimental part:
as §1, §2, §3

In another assay the target is T3, rmCLEC4F (Mus musculus, UniProt P70194).
T3 construct: The extracellular domains of receptor proteins were acquired from R&D Systems (Wiesbaden, Germany); purchased R&D Systems (Wiesbaden, Germany)
T3 sequence (P70194 70-548 limits assumed): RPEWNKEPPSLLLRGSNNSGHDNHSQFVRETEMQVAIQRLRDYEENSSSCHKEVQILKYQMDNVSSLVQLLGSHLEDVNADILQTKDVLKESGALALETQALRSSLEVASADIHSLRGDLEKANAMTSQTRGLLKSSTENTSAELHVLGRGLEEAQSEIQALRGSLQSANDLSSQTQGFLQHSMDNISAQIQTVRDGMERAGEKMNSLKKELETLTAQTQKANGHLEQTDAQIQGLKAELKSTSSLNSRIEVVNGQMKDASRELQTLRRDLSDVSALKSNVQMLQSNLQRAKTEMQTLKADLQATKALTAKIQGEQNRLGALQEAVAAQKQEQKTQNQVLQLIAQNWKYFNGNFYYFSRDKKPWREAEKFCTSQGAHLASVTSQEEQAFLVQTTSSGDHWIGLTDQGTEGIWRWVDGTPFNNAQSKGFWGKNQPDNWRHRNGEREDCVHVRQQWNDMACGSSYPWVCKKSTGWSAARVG
Description: SPR binding to immobilized clearance receptor rmCLEC4F. Conditions: 25 °C, 5 mM CaCl2, pH 7.4, FIGS. 9 and 10. How it is done:
as §1, §2, §3

Another assay concerns the target T4, rhCLEC10A (Homo sapiens, UniProt Q8IUN9).
T4 construct: The extracellular domains of receptor proteins were acquired from R&D Systems (Wiesbaden, Germany); purchased R&D Systems (Wiesbaden, Germany)
T4 sequence (Q8IUN9 61-316 limits assumed): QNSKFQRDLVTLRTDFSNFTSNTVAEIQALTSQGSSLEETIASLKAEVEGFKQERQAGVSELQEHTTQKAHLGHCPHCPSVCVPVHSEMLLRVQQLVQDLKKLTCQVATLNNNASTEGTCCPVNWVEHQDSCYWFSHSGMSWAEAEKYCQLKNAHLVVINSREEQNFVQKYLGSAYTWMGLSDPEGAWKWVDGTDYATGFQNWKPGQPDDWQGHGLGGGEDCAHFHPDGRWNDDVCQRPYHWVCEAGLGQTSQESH
Description: SPR binding to immobilized clearance receptor rhCLEC10A. Conditions: 25 °C, 5 mM CaCl2, pH 7.4, FIGS. 9 and 10. How it is done:
as §1, §2, §3

The next assay has as its target T5, rhCOLEC12 (Homo sapiens, UniProt Q5KU26).
T5 construct: The extracellular domains of receptor proteins were acquired from R&D Systems (Wiesbaden, Germany); purchased R&D Systems (Wiesbaden, Germany)
Description: SPR binding to immobilized clearance receptor rhCOLEC12. The settings on record: 25 °C, 5 mM CaCl2, pH 7.4, FIGS. 9 and 10. As for the experimental part:
as §1, §2, §3

A further assay has as its target T6, rhSCARA5 (Homo sapiens, UniProt Q6ZMJ2).
T6 construct: The extracellular domains of receptor proteins were acquired from R&D Systems (Wiesbaden, Germany); purchased R&D Systems (Wiesbaden, Germany)
Description: SPR binding to immobilized clearance receptor rhSCARA5. Conditions: 25 °C, 5 mM CaCl2, pH 7.4, FIGS. 9 and 10. How it is done: as §1, §2, §3

Entries after “also recorded” stand apart in the source; their conditions may differ.

T6 sequence (Q6ZMJ2 82-495 limits assumed): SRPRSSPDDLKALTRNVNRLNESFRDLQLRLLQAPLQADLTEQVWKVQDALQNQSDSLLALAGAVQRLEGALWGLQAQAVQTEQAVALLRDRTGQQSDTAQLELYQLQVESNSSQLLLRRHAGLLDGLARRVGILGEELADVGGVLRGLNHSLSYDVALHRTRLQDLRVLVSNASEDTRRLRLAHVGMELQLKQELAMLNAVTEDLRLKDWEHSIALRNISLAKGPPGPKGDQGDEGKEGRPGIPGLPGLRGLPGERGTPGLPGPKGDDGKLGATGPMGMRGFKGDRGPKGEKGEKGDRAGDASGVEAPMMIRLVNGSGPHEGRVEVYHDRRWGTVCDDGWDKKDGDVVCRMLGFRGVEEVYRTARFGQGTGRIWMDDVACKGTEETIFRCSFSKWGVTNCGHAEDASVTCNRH
T5 sequence (Q5KU26 59-742 limits assumed): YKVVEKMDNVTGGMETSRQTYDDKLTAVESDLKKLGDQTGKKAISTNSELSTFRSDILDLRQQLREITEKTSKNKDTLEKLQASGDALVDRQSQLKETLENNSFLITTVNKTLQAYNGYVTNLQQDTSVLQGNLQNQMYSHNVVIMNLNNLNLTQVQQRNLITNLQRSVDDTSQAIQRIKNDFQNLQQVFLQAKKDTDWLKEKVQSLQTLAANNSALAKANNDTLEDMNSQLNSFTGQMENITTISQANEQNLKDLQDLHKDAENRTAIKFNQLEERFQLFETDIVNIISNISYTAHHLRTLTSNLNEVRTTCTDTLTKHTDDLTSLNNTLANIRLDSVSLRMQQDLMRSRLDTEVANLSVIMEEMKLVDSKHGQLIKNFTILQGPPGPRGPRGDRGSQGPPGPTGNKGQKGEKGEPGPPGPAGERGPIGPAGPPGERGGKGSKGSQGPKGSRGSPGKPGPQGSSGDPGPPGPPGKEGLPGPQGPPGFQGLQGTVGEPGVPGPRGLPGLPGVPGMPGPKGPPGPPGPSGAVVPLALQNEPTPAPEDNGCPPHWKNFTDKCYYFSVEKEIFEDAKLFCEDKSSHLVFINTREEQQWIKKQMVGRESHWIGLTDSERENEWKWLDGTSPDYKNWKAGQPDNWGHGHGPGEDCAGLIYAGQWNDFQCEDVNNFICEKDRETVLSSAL

As for “plasma derived VWF multimers: multimeric VWF purified from human plasma, native glycosylation structure without modifications”, the “interaction with rhASGPR, solid-phase binding assay” value with rhASGPR [1] is reported as “interacted with rhASGPR”. Moreover, the “interaction of pd VWF multimers with clearance receptor candidates” value in assay [2] (according to Example 9) is given as “interact”.
For `CC(=O)N[C@H]1C(O)O[C@H](CO)[C@H](O)[C@@H]1O` (stereo partly drawn) [GalNac, N-acetylgalactosamine], the “inhibition of ASF binding to immobilized rhASGPR” value (shortened to “inhibition of ASF binding”) at rhASGPR [3] is on record as “decreased binding; also recorded: inhibited binding”. Also, the “inhibition of interaction of pd VWF monomers with clearance receptors” value (“inhibition … with clearance receptors” for short) in the assay on clearance receptors was “inhibited”. The “inhibition of binding of pd VWF multimers to clearance receptor candidates” value (from here on “inhibition … to clearance receptor candidates”) in assay [2] is recorded as “inhibited”.
Take fetuin [reference compound]: the “SPR binding to rhASGPR” value at rhASGPR [4] is recorded as “almost not”. Besides, on rhCLEC4M, the “SPR binding to rhCLEC4M” value was “almost not”. The “SPR binding to rmCLEC4F” value at rmCLEC4F is “almost not”. Besides, the “SPR binding to rhCLEC10A” value on rhCLEC10A was “almost not”. The “SPR binding to rhCOLEC12” value at rhCOLEC12 is “almost not”. Further, on rhSCARA5, the “SPR binding to rhSCARA5” value is given as “almost not”.
On to “VWF: purified VWF monomers (pd VWF after reduction with dithiothreitol and carboxymethylation with iodoacetamide)”, for which the “SPR binding to rhASGPR” value with rhASGPR [4] is on record as “bind efficiently”. Further, the “SPR binding to rhCLEC4M” value in the assay with rhCLEC4M is recorded as “bind efficiently”. For the same compound, the “SPR binding to rmCLEC4F” value with rmCLEC4F is “bind efficiently”. The “SPR binding to rhCLEC10A” value with rhCLEC10A is recorded as “bind efficiently”. Also, the “SPR binding to rhCOLEC12” value in the assay with rhCOLEC12 is “bind efficiently”. The “SPR binding to rhSCARA5” value with rhSCARA5 is given as “bind efficiently”.
Take “asialofetuin: bovine ASF (fetuin after the removal of terminal sialic acid residues), ligand blocking galactose receptors such as ASGPR”: the “SPR binding to rhCLEC4M” value in the assay with rhCLEC4M is listed as “bind efficiently”. The “SPR binding to rmCLEC4F” value in the assay with rmCLEC4F is given as “bind efficiently”. The “SPR binding to rhCLEC10A” value with rhCLEC10A is on record as “bind efficiently”. Further, the “SPR binding to rhCOLEC12” value in the assay with rhCOLEC12 is listed as “bind efficiently”. Besides, the “SPR binding to rhSCARA5” value in the assay with rhSCARA5 was “bind efficiently”. Also, the “inhibition … to clearance receptor candidates” value in [2] is “inhibited”.
With `O=C[C@H](O)[C@@H](O)[C@@H](O)[C@H](O)CO` [Gal, galactose], the “inhibition of ASF binding” value at rhASGPR [3] is “decreased binding; also recorded: inhibited binding”. For the same compound, the “inhibition … with clearance receptors” value in the assay on clearance receptors is listed as “inhibited”. Also, the “inhibition … to clearance receptor candidates” value in assay [2] is listed as “inhibited”.
Turning to `C[C@H](O)[C@@H](O)[C@@H](O)[C@H](O)C=O` [Fuc, fucose], the “inhibition of ASF binding” value on rhASGPR [3] is listed as “decreased binding; also recorded: inhibited binding”. Also, the “inhibition … with clearance receptors” value with clearance receptors is given as “inhibited”. For the same compound, the “inhibition … to clearance receptor candidates” value in assay [2] was “inhibited”.
With “asialo-VWF multimers: plasma derived VWF after treatment with α(2-3,6,8)-neuraminidase, used as control”, the “interaction with rhASGPR, solid-phase binding assay” value in the assay with rhASGPR [1] is recorded as “interacted with rhASGPR”.

Values taken from patent US9707269B2, “Sugar compositions for treating hemophilia A and/or von Willebrand disease” (CSL Behring GmbH, priority 2012, dated 2017).
